In one experiment the target is T1, Gal4-RORγ-LBD (Homo sapiens, UniProt P51449).
T1 construct: expressed in transfected cells
T1 sequence (P51449 269-508 limits assumed): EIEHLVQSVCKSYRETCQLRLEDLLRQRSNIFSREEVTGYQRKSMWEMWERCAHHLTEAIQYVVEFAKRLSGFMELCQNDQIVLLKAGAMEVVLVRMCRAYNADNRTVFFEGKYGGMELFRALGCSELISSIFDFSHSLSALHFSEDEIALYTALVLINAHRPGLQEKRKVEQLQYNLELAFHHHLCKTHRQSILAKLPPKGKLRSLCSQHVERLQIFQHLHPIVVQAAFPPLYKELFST
The experiment can be described thus: Gal4-RORγ Luciferase Reporter Assay in HEK-293T Cells. The experiment is classed as cell-based. As to conditions: HEK-293 cells, luciferase reporter; for Gal4-RORγ Assay Max Response: maximum response. Summed up: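 Max Response was taken as the upper plateau of a 4-parameter logistic fit of luciferase signal, normalized to 100 for wells without ursolic acid or compound. Transiently Gal4-RORγ-LBD/Gal4-luc transfected HEK-293 cells carrying […] ursolic acid were incubated with test compounds (0.2% DMSO) overnight at 37 °C and read with One-Glo.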

The next experiment deals with T2, RORγ-LBD (Homo sapiens, UniProt P51449).
T2 construct: made in house; host or cells: SF9 cells (baculovirus); used as diluted lysate
T2 sequence (P51449 269-508 limits assumed): T1 sequence (P51449 269-508 limits assumed)
The experiment in a line: RORγ-Ligand Binding Domain (LBD) TR-FRET Assay.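 On TR-FRET Assay Max Response: 665/615 nm signal ratio set to 100 without ursolic acid or test compound.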 The experiment is classed as biochemical. The settings on record: for TR-FRET Assay Max Response: maximum response. Summed up: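 TR-FRET read-out using a biotin-tagged SRC1 coactivator LXXLL peptide (200 nM final), with the antagonist ursolic acid present at 2 μM final. Receptor is His-tagged LBD expressed in SF9 cells, ~3 nM final in pH 7.0 Tris/KCl/EDTA/DTT/BSA buffer; compounds in 1% DMSO final.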
(In general: In TR-FRET formats the signal depends on donor and acceptor labels being close together.)

Consider `CCOc1ncc(C(F)(F)F)cc1S(=O)(=O)N1C[C@H](CCC(=O)N2CCC(C(=O)O)CC2)Oc2ccc(/C=C(\C)c3c(F)cccc3Cl)cc21` [Example 129L, (S,E)-1-(3-(6-(2-(2-chloro-6-fluorophenyl)-prop-1-en-1-yl)-4-((2-ethoxy-5-(trifluoro-methyl)pyridin-3-yl)sulfonyl)-3,4-dihydro-2H-benzo[b][1,4]oxazin-2-yl)propanoyl)-piperidine-4-carboxylic acid], for which, at Gal4-RORγ-LBD (in presence of ursolic acid), the EC50 (as a rule, the concentration giving half of the maximal effect) was less than 500 nM and the “Gal4-RORγ Assay Max Response” value is “* (a value in the range of 30 to 90)”. Moreover, at RORγ-LBD (RORγ-LBD TR-FRET assay), the EC50 is less than 500 nM and the “TR-FRET Assay Max Response” value is on record as “*** (a value in the range of greater than 150 to 200)”.
With `COC(=O)CC[C@H]1CN(S(=O)(=O)c2cccc(OC(F)F)c2)c2c(ccc(/C=C(\C)c3c(F)cccc3Cl)c2C)O1` [Example 59, Methyl (S,E)-3-(6-(2-(2-chloro-6-fluorophenyl)prop-1-en-1-yl)-4-((3-(difluoromethoxy)phenyl)sulfonyl)-5-methyl-3,4-dihydro-2H-benzo[b][1,4]oxazin-2-yl)propanoate], the EC50 at Gal4-RORγ-LBD (with ursolic acid) was 500 to 5000 nM; at RORγ-LBD (RORγ-LBD TR-FRET), less than 500 nM.
`C/C(=C\c1ccc2c(c1)N(S(=O)(=O)c1cccc(C(F)(F)F)c1)C[C@H](CC(=O)O)O2)c1c(F)cccc1Cl` [Example 107, (S,E)-2-(6-(2-(2-Chloro-6-fluorophenyl)prop-1-en-1-yl)-4-((3-(trifluoromethyl)phenyl)sulfonyl)-3,4-dihydro-2H-benzo[b][1,4]oxazin-2-yl)acetic acid]: at Gal4-RORγ-LBD (in presence of ursolic acid), the concentration for a half-maximal effect (EC50) was 500 to 5000 nM and the “Gal4-RORγ Assay Max Response” value is reported as “** (a value in the range of greater than 90 to 150)”. For the same compound, on RORγ-LBD (RORγ-LBD TR-FRET assay), the EC50 is less than 500 nM and the “TR-FRET Assay Max Response” value is given as “** (a value in the range of greater than 90 to 150)”.
Consider `COc1cccc(C(F)(F)F)c1/C=C/c1ccc2c(c1)N(S(=O)(=O)c1cccc(C(F)(F)F)c1)C[C@H](CCC(=O)O)O2` [Example 89ER, (S,E)-3-(6-(2-methoxy-6-(trifluoromethyl)styryl)-4-((3-(trifluoromethyl)phenyl)-sulfonyl)-3,4-dihydro-2H-benzo[b][1,4]oxazin-2-yl)propanoic acid], for which the EC50 on Gal4-RORγ-LBD (with ursolic acid) and on RORγ-LBD (RORγ-LBD TR-FRET) was less than 500 nM each time.
As for `N#Cc1cccc(/C=C/c2ccc3c(c2)N(S(=O)(=O)c2cccc(C(F)(F)F)c2)C[C@H](CCC(=O)O)O3)c1F` [Example 89BW, (S,E)-3-(6-(3-cyano-2-fluorostyryl)-4-((3-(trifluoromethyl)phenyl)sulfonyl)-3,4-dihydro-2H-benzo[b][1,4]oxazin-2-yl)propanoic acid], the EC50 on Gal4-RORγ-LBD (with ursolic acid) was greater than 10000 nM; on RORγ-LBD (RORγ-LBD TR-FRET), less than 500 nM.
For `Cc1ccc(F)c(/C=C/c2ccc3c(c2)N(S(=O)(=O)c2cccc(C(F)(F)F)c2)C[C@H](CCC(=O)O)O3)n1` [Example 89CG, (S,E)-3-(6-(2-(3-fluoro-6-methylpyridin-2-yl)vinyl)-4-((3-(trifluoromethyl)phenyl)sulfonyl)-3,4-dihydro-2H-benzo[b][1,4]-oxazin-2-yl)propanoic acid] the same measures were 5000 to 10000 nM and less than 500 nM.
Consider `COC(=O)CC[C@H]1CN(S(=O)(=O)c2cccc(OC(F)F)c2)c2cc(/C=C(\C)c3c(F)cccc3Cl)c(F)cc2O1` [Example 43, (S,E)-Methyl 3-(6-(2-(2-chloro-6-fluorophenyl)prop-1-en-1-yl)-4-((3-(difluoromethoxy)phenyl)sulfonyl)-7-fluoro-3,4-dihydro-2H-benzo[b][1,4]oxazin-2-yl)propanoate], for which the EC50 on Gal4-RORγ-LBD (with ursolic acid) and on RORγ-LBD (RORγ-LBD TR-FRET) was less than 500 nM in each case.
As for `COc1cc(S(=O)(=O)N2CCCc3ccc(OCc4c(Cl)cccc4C(F)(F)F)cc32)ccc1F` [Example 25Q, 7-((2-chloro-6-(trifluoromethyl)benzyl)oxy)-1-((4-fluoro-3-methoxyphenyl)sulfonyl)-1,2,3,4-tetrahydroquinoline], the EC50 on Gal4-RORγ-LBD (with ursolic acid) and on RORγ-LBD (RORγ-LBD TR-FRET) was less than 500 nM each time.
Turning to `CCOc1nn(CC)cc1S(=O)(=O)N1C[C@H](CCC(=O)O)Oc2ccc(/C=C/c3c(Cl)cccc3C(F)(F)F)cc21` [Example 89DO, (S,E)-3-(6-(2-chloro-6-(trifluoromethyl)styryl)-4-((3-ethoxy-1-ethyl-1H-pyrazol-4-yl)sulfonyl)-3,4-dihydro-2H-benzo[b][1,4]oxazin-2-yl)propanoic acid], the EC50 at Gal4-RORγ-LBD (with ursolic acid) and on RORγ-LBD (RORγ-LBD TR-FRET) was less than 500 nM throughout.
On to `O=S(=O)(c1cccc(C(F)(F)F)c1)N1C[C@H](O)Cc2ccc(OCc3c(F)cccc3Cl)cc21` [Example 155, (R)-7-((2-Chloro-6-fluorobenzyl)oxy)-1-((3-(trifluoromethyl)phenyl)sulfonyl)-1,2,3,4-tetrahydroquinolin-3-ol], for which, at Gal4-RORγ-LBD (in presence of ursolic acid), the EC50 is less than 500 nM and the “Gal4-RORγ Assay Max Response” value is recorded as “** (a value in the range of greater than 90 to 150)”. Besides, on RORγ-LBD (RORγ-LBD TR-FRET assay), the EC50 was less than 500 nM and the “TR-FRET Assay Max Response” value was “** (a value in the range of greater than 90 to 150)”.
For `C[C@@H](O)COc1ncc(C(F)(F)F)cc1S(=O)(=O)N1C[C@H](CCC(=O)O)Oc2ccc(/C=C/c3c(F)cccc3Cl)cc21` [Example 79, 3-((S)-6-((E)-2-Chloro-6-fluorostyryl)-4-((2-((R)-2-hydroxypropoxy)-5-(trifluoromethyl)pyridin-3-yl)sulfonyl)-3,4-dihydro-2H-benzo[b][1,4]oxazin-2-yl)propanoic acid], the concentration giving a half-maximal response (EC50) on Gal4-RORγ-LBD (with ursolic acid) is 500 to 5000 nM; on RORγ-LBD (RORγ-LBD TR-FRET), less than 500 nM.
As to `C/C(=C\c1ccc2c(c1)N(S(=O)(=O)c1cccc(C(F)(F)F)c1)C[C@@H](O)C2)c1c(F)cccc1Cl` [Example 161, (S,E)-7-(2-(2-Chloro-6-fluorophenyl)prop-1-en-1-yl)-1-((3-(trifluoromethyl)phenyl)sulfonyl)-1,2,3,4-tetrahydroquinolin-3-ol], on Gal4-RORγ-LBD (in presence of ursolic acid), the EC50 is less than 500 nM and the “Gal4-RORγ Assay Max Response” value is on record as “** (a value in the range of greater than 90 to 150)”. For the same compound, on RORγ-LBD (RORγ-LBD TR-FRET assay), the EC50 was less than 500 nM and the “TR-FRET Assay Max Response” value is on record as “** (a value in the range of greater than 90 to 150)”.

For the origin of these results see US9896441B2 (Lycera Corporation, priority 2014, dated 2018).
